This passage reports inhibition results from patent EP1832576A1, “4-Biarylyl-1-phenolyzetidin-2-ones” (Microbia Inc., priority 2003, dated 2005).

The test system of the assay is cholesterol absorption from the intestine. The assay is described as follows: In Vivo Assay of Hypolipidemic Agents using the Rat Cholesterol Absorption Model. On the set-up: species or system Female Sprague-Dawley rats. The following applies: po; for inhibition at 1 mg/kg: 3H levels in serum three hours after 3H-cholesterol, versus vehicle only control; for inhibition at 0.3 mg/kg: Table 2, footnote 6, perorally. The protocol: In Vivo Assay of Hypolipidemic Agents using the Rat Cholesterol Absorption Model. This model is based on models described by Burnett et al (2002), Bioorg. Med. Chem. Lett. 2002 Feb 11;12(3):315-8 and J. Lipid Res. 1999 Oct;40(10):1747-57. Female Sprague-Dawley rats weighing 150-250g are separated into […] and fasted overnight. The animals (4-6/group) are dosed perorally with 300µL test compounds in olive oil or suitable vehicle. Thirty minutes later, 3-5 microCuries ^3H-cholesterol per rat are delivered perorally in 300 µL olive oil. After three hours, 200 µL serum is collected, vortexed with scintillation fluid, and measured for radioactivity in a scintillation counter. Percent inhibition is defined as 100*(1-Ctest/Cctrl), where Ctest and Cctrl refer to ^3H levels in serum for the test compound and for the vehicle only control, respectively. Percent inhibition values are reported for a fixed dose. The ED50 is the dose at which the half-maximal effect on serum ^3H levels is observed for a given test compound.
Representative compounds of the invention were tested in the Rat Cholesterol Absorption model above.

As for `O=C1[C@H](CC[C@H](O)c2ccc(F)cc2)[C@@H](c2ccc(-c3cccc([C@H](O)[C@H]4OC(O)[C@H](O)[C@@H](O)[C@@H]4O)c3)cc2)N1c1ccccc1` (stereo partly drawn) [Example 71, (6S)-6-C-(4'-{(2S,3R)-3-[(3S)-3-(4-Fluorophenyl)-3-hydroxypropyl]-4-oxo-1-phenylazetidin-2-yl}biphenyl-3-yl)-D-glucopyranose], at 1 mg/kg the inhibition (Table 2, perorally) was 65%.

`Cc1cc(C)cc(-c2ccc([C@@H]3[C@@H](CC[C@H](O)c4ccc(F)cc4)C(=O)N3c3ccc(F)cc3)cc2)c1` [Example 90, (3R,4S)-4-(3',5'-dimethylbiphenyl-4-yl)-1-(4-fluorophenyl)-3-[(3S)-3-(4-fluorophenyl)-3-hydroxypropyl]azetidin-2-one] yielded an inhibition at 1 mg/kg (Table 1, perorally) of 27%.

Molecule `Cc1cc(-c2ccc([C@@H]3[C@@H](CC[C@H](O)c4ccc(F)cc4)C(=O)N3c3ccc(F)cc3)cc2)ccc1F` [Example 94, (3R,4S)-4-(4'-fluoro-3'-methylbiphenyl-4-yl)-1-(4-fluorophenyl)-3-[(3S)-3-(4-fluorophenyl)-3-hydroxypropyl]azetidin-2-one] came in with an inhibition at 1 mg/kg (Table 1, perorally) of 30%.

`O=C1[C@H](CC[C@H](O)c2ccc(F)cc2)[C@@H](c2ccc(-c3ccc([C@H]4O[C@@H](CO)[C@H](O)[C@@H](O)[C@@H]4O)cc3)cc2)N1c1ccc(F)cc1` [Example 116, (1R)-1,5-anhydro-1-(4'-{(2S,3R)-1-(4-fluorophenyl)-3-[(3S)-3-(4-fluorophenyl)-3-hydroxypropyl]-4-oxoazetidin-2-yl}biphenyl-4-yl)-L-glucitol] showed an inhibition at 1 mg/kg (Table 1, perorally) of 81%.

In turn, `O=C1[C@H](CC[C@H](O)c2ccc(F)cc2)[C@@H](c2ccc(-c3cccc([C@H](O)[C@H]4OC(O)[C@H](O)[C@@H](O)[C@@H]4O)c3)cc2O)N1c1ccccc1` (stereo partly drawn) [Example 73, (6S)-6-C-(4'-{(2S,3R)-3-[(3S)-3-(4-Fluorophenyl)-3-hydroxypropyl]-4-oxo-1-phenylazetidin-2-yl}-3'-hydroxybiphenyl-3-yl)-D-glucopyranose] gave an inhibition at 1 mg/kg (Table 2, perorally) of 59%.

Molecule `O=C1[C@H](CC[C@H](O)c2ccc(F)cc2)[C@@H](c2ccc(-c3cccc([C@@H]4O[C@H](CO)[C@@H](O)[C@H](O)[C@H]4O)c3)cc2O)N1c1ccccc1` [Example 65, (1S)-1,5-anhydro-1-(4'-{(2S,3R)-3-[(3S)-3-(4-fluorophenyl)-3-hydroxypropyl]-4-oxo-1-phenylazetidin-2-yl}-3'-hydroxybiphenyl-3-yl)-D-glucitol] gave an inhibition at 0.1 mg/kg (Table 2, footnote 5, perorally, 0.1 mg/kg) of 60%.

For the molecule `CC(C)Oc1cccc(-c2ccc([C@@H]3[C@@H](CC[C@H](O)c4ccc(F)cc4)C(=O)N3c3ccc(F)cc3)cc2)c1` [Example 105, (3R,4S)-1-(4-fluorophenyl)-3-[(3S)-3-(4-fluorophenyl)-3-hydroxypropyl]-4-(3'-isopropoxybiphenyl-4-yl)azetidin-2-one], testing at 1 mg/kg (Table 1, perorally) gave an inhibition of 15%.

Take `O=C(O)Cc1ccc(-c2ccc([C@@H]3[C@@H](CC[C@H](O)c4ccc(F)cc4)C(=O)N3c3ccc(F)cc3)cc2)cc1` [Example 88, (4'-{(2S,3R)-1-(4-fluorophenyl)-3-[(3S)-3-(4-fluorophenyl)-3-hydroxypropyl]-4-oxoazetidin-2-yl}biphenyl-4-yl)acetic acid]: where the note is “Table 1, perorally”, testing at 1 mg/kg gave an inhibition of 30%.

Turning to `CN(C)c1ccc(-c2ccc([C@@H]3[C@@H](CC[C@H](O)c4ccc(F)cc4)C(=O)N3c3ccc(F)cc3)cc2)cc1` [Example 17, (3R,4S)-4-[4'(dimethylamino)biphenyl-4-yl]-1-(4-fluorophenyl)-3-[(3S)-3-(4-fluorophenyl)-3-hydroxypropyl]azetidin-2-one], the inhibition at 1 mg/kg (Table 1, perorally) came to 43%.

In turn, `O=C1[C@H](CC[C@H](O)c2ccc(F)cc2)[C@@H](c2ccc(-c3cccc([C@@H](O)[C@H]4OC(O)[C@H](O)[C@@H](O)[C@@H]4O)c3)cc2)N1c1ccccc1` (stereo partly drawn) [Example 72, (6R)-6-C-(4'-{(2S,3R)-3-[(3S)-3-(4-Fluorophenyl)-3-hydroxypropyl]-4-oxo-1-phenylazetidin-2-yl}biphenyl-3-yl)-D-glucopyranose] registered an inhibition at 0.3 mg/kg of 27%.

Consider `COc1cc(OC)cc(-c2ccc([C@@H]3[C@@H](CC[C@H](O)c4ccc(F)cc4)C(=O)N3c3ccc(F)cc3)cc2)c1` [Example 107, (3R,4S)-4-(3',5'-dimethoxybiphenyl-4-yl)-1-(4-fluorophenyl)-3-[(3S)-3-(4-fluorophenyl)-3-hydroxypropyl]azetidin-2-one], for which 1 mg/kg produced 49% inhibition (Table 1, perorally).

`O=C1[C@H](CCC(O)c2ccc(F)cc2)[C@@H](c2ccc(-c3cccc(S(=O)(=O)O)c3)cc2O)N1c1ccccc1` (stereo partly drawn) [Example 53, Sodium 4'-{(2S,3R)-3-[(3S/R)-3-(4-fluorophenyl)-3-hydroxypropyl]-4-oxo-1-phenylazetidin-2-yl}-3'-hydroxybiphenyl-3-sulfonate] gave an inhibition at 1 mg/kg (Table 2, perorally) of 78%.

`O=C1[C@H](CC[C@H](O)c2ccc(F)cc2)[C@@H](c2ccc(-c3ccc([C@@H]4O[C@H](CO)[C@@H](O)[C@H](O)[C@H]4O)cc3)cc2O)N1c1ccccc1` [Example 66, (1S)-1,5-Anhydro-1-(4'-{(2S,3R)-3-[(3S)-3-(4-fluorophenyl)-3-hydroxypropyl]-4-oxo-1-phenylazetidin-2-yl}-3'-hydroxybiphenyl-4-yl)-D-glucitol] returned an inhibition at 0.3 mg/kg of 71%.

`O=C(O)c1cccc(-c2ccc([C@@H]3[C@@H](CC[C@H](O)c4ccc(F)cc4)C(=O)N3c3ccc(F)cc3)cc2)c1` [Example 21, 4'-{(2S,3R)-1-(4-fluorophenyl)3-[(3S)-3-(4-fluorophenyl)-3-hydroxypropyl]-4-oxoazetidin-2-yl]biphenyl-3-carboxylic acid]: the inhibition at 1 mg/kg (Table 1, perorally) is 68%.

On to `O=C1[C@H](CC[C@H](O)c2ccc(F)cc2)[C@@H](c2ccc(-c3ccc(O)cc3)cc2)N1c1ccc(F)cc1` [Example 2, (3R,4S)-1-(4-fluorophenyl)-3-[(3S)-3-(4-fluorophenyl)-3-hydroxypropyl]-4-(4'-hydroxybiphenyl-4-yl)azetidin-2-one], for which the inhibition at 1 mg/kg (Table 1, perorally) turned out to be 54%.

Regarding `O=C1[C@H](CC[C@H](O)c2ccc(F)cc2)[C@@H](c2ccc(-c3cc(O)ccc3Br)cc2)N1c1ccc(F)cc1` [Example 19, (3R,4S)-4-(2'-bromo-5'-hydroxybiphenyl-4-yl)-1-(4-fluorophenyl)-3-[(3S)-3-(4-fluorophenyl)-3-hydroxypropyl]azetidin-2-one], testing at 1 mg/kg (Table 1, perorally) gave an inhibition of 66%.

In turn, `O=C1[C@H](CC[C@H](O)c2ccc(F)cc2)[C@@H](c2ccc(-c3cccc(O)c3)cc2)N1c1ccc(-c2ccccc2)cc1` [Example 124, (3R,4S)-1-biphenyl-4-yl-3-[(3S)-3-(4-fluorophenyl)-3-hydroxypropyl]-4-(3'-hydroxybiphenyl-4-yl)azetidin-2-one] returned an inhibition at 1 mg/kg (Table 2, perorally) of 48%.

For the setting “Table 1, perorally”, `CS(=O)(=O)c1ccc(-c2ccc([C@@H]3[C@@H](CC[C@H](O)c4ccc(F)cc4)C(=O)N3c3ccc(F)cc3)cc2)cc1` [Example 8, (3R,4S)-1-(4-fluorophenyl)-3-[(3S)-3-(4-fluorophenyl)-3-hydroxypropyl]-4-[4'-(methylsulfonyl)biphenyl-4-yl]azetidin-2-one] showed an inhibition at 1 mg/kg of 53%.

Under “Table 2, footnote mark 3 (defined only under Table 1: 5 mg/kg), perorally”, `O=C1[C@H](CC[C@H](O)c2ccc(F)cc2)[C@@H](c2ccc(-c3cccc(P(=O)(O)O)c3)cc2O)N1c1ccccc1` [Example 61, (4'-{(2S,3R)-3-[(3S)-3-(4-Fluorophenyl)-3-hydroxypropyl]-4-oxo-1-phenylazetidin-2-yl}-3'-hydroxybiphenyl-3-yl)phosphonic acid] gave an inhibition at 5 mg/kg of 58%.

On to `CO[C@H]1O[C@H](COc2cccc(-c3ccc([C@@H]4[C@@H](CC[C@H](O)c5ccc(F)cc5)C(=O)N4c4ccc(F)cc4)cc3)c2)[C@@H](O)[C@H](O)[C@H]1O` [Example 77, methyl 6-O-(4'-{(2S,3R)-1-(4-fluorophenyl)-3-[(3S)-3-(4-fluorophenyl)-3-hydroxypropyl]-4-oxoazetidin-2-yl}biphenyl-3-yl)-α-D-glucopyranoside], for which, under “Table 1, perorally”, at 1 mg/kg the inhibition was 70%.

Take `COc1cccc(-c2ccc([C@@H]3[C@@H](CC[C@H](O)c4ccc(F)cc4)C(=O)N3c3ccc(F)cc3)cc2)c1` [Example 12, (3R,4S)-1-(4-fluorophenyl)-3-[(3S)-3-(4-fluorophenyl)-3-hydroxypropyl]-4-(3'-methoxybiphenyl-4-yl)azetidin-2-one]: 1 mg/kg produced 70% inhibition (Table 1, perorally).

As for `C=Cc1ccc(-c2ccc([C@@H]3[C@@H](CC[C@H](O)c4ccc(F)cc4)C(=O)N3c3ccc(F)cc3)cc2)cc1` [Example 84, (3R,4S)-1-(4-fluorophenyl)-3-[(3S)-3-(4-fluorophenyl)-3-hydroxypropyl]-4-(4'-vinylbiphenyl-4-yl)azetidin-2-one], testing at 1 mg/kg (Table 1, perorally) gave an inhibition of 51%.

Under “Table 2, perorally”, `O=C1[C@H](CC[C@H](O)c2ccc(F)cc2)[C@@H](c2ccc(-c3cccc(B(O)O)c3)cc2)N1c1ccccc1` [Example 59, (4'-{(2S,3R)-3-[(3S)-3-(4-Fluorophenyl)-3-hydroxypropyl]-4-oxo-1-phenylazetidin-2-yl}biphenyl-3-yl)boronic acid] gave an inhibition at 1 mg/kg of 70%.
